Reference: patent publication EP4740948A1 (Dong Wha Pharm. Co., Ltd., priority 2023, dated 2025)

What was measured:
[1] = test system: G401 cells; assay: Cancer cell proliferation inhibition (Cell Counting Kit-8), rhabdoid tumor cell line; assay type: cell-based; conditions: Homo sapiens, G-401, 264 h, 1000 nM, cultured seven to 11 days; read-out: % inhibition rate G401
How it was run: (§1)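 Single 1000 nM dose of test substance, applied to cells seeded at 100–1,000 per well in 10% FBS medium, then culture for seven to 11 days. CCK-8 read-out; inhibition rate expressed as percent relative to untreated control.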

[2] = molecular target: EZH2 (Homo sapiens, UniProt Q15910); assay: AlphaLISA enzyme activity inhibition, EZH2; assay type: biochemical; conditions: 5nM test substance
Chain of EZH2 (Q15910 whole entry, species assumed): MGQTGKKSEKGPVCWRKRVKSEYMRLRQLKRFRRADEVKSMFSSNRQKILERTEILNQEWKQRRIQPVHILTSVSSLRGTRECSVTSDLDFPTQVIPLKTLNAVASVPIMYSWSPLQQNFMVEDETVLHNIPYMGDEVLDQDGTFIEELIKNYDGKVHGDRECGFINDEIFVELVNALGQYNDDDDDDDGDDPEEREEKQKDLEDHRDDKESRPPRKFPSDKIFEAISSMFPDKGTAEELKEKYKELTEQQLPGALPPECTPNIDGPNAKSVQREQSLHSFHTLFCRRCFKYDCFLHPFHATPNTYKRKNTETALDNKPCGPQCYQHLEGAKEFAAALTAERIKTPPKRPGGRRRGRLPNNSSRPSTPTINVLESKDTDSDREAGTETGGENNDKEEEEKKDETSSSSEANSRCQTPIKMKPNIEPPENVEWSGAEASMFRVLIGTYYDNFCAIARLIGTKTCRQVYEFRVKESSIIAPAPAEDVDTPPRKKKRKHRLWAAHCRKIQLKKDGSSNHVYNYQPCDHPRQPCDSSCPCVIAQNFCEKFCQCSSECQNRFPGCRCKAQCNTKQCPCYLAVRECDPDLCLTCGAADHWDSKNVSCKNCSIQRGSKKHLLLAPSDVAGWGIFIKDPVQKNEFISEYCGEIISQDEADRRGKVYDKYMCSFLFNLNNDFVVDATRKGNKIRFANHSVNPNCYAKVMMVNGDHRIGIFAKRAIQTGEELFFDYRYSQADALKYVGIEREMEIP
Chain of EZH2 (O75530 whole entry partner, species assumed): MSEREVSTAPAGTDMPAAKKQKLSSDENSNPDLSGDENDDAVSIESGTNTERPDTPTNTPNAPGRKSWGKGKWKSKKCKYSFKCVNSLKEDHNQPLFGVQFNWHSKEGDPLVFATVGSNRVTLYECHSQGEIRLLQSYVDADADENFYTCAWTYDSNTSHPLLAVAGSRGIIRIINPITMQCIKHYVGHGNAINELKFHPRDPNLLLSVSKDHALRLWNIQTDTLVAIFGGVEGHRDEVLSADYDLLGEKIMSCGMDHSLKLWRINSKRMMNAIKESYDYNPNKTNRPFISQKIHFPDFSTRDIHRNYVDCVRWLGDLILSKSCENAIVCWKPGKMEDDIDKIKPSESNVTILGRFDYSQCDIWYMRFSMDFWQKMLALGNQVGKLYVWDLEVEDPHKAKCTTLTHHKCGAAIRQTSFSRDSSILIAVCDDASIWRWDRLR
Chain of EZH2 (Q15022 whole entry partner, species assumed): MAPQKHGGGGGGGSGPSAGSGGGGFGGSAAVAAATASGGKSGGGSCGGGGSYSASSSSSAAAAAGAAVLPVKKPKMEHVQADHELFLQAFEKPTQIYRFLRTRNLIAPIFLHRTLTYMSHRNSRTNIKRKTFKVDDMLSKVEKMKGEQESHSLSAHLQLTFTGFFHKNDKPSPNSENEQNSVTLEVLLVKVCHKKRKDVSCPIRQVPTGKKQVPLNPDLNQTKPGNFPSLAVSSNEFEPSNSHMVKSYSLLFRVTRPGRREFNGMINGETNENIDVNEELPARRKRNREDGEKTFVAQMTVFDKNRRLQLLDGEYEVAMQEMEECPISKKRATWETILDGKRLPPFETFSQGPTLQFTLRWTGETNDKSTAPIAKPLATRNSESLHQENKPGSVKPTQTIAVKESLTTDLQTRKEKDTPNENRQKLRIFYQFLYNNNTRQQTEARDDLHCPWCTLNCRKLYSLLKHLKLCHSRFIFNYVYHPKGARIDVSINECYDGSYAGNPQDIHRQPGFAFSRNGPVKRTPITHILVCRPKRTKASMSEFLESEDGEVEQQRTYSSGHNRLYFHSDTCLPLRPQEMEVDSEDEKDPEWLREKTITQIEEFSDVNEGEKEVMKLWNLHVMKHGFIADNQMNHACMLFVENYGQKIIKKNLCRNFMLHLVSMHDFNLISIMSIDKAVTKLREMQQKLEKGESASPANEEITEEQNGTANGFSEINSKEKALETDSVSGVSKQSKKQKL
Procedure: (§2) In order to confirm the EZH1 and/or EZH2 activity inhibitory effect of the 1,3-benzodioxole derivative compounds represented by chemical formula I of the present invention, the activity was measured using an AlphaLISA test method. The test substance dissolved in dimethylsulfoxide (DMSO) was diluted in a test solution (20 mM Tris pH 8.0, 0.1% BSA, 0.01% Triton X-100, 0.5 mM DTT) according to a final treatment concentration (5 nM or 10 nM) and mixed with EZH1 and EZH2, respectively, and then histone H3 peptide and S-adenosylmethionine (SAM) were added to initiate an enzyme reaction. An acceptor bead was added thereto after reaction for two hours and subjected to an additional reaction for one hour, after which a donor bead was added thereto. After an additional reaction for 30 minutes, the reaction was completed. An activity was measured using the Magellan program on a Spark10M instrument. DMSO was used as a control group, an inhibition rate of enzyme activity was calculated using a following equation, and the results thereof are shown in Table 1 below. [formula]

[3] = test system: MIA-PaCa-2 cells; assay: Cancer cell proliferation inhibition (Cell Counting Kit-8), pancreatic cancer cell line; assay type: cell-based; conditions: Homo sapiens, MIA PaCa-2, 264 h, 1000 nM, cultured seven to 11 days; read-out: % inhibition rate MIA-Paca2
How it was run: (§3)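 Single-concentration test: 1000 nM compound, 7-11 day culture after seeding 100 to 1,000 cells per well in 10% FBS medium. Percent inhibition derived from Cell Counting Kit-8 signal relative to untreated control.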

[4] = test system: Lovo cells; assay: Cancer cell proliferation inhibition (Cell Counting Kit-8), colorectal cancer cell line; assay type: cell-based; conditions: Homo sapiens, LoVo, 264 h, 1000 nM, cultured seven to 11 days; read-out: % inhibition rate LoVo
How it was run: as §3

[5] = test system: SW-13 cells; assay: Cancer cell proliferation inhibition (Cell Counting Kit-8), adrenal cancer cell line; assay type: cell-based; conditions: Homo sapiens, SW13, 264 h, 1000 nM, cultured seven to 11 days; read-out: % inhibition rate SW-13
How it was run: as §3

[6] = test system: MKN-45 cells; assay: Cancer cell proliferation inhibition (Cell Counting Kit-8), gastric cancer cell line; assay type: cell-based; conditions: Homo sapiens, MKN-45, 264 h, 1000 nM, cultured seven to 11 days; read-out: % inhibition rate MKN -45
How it was run: as §1

[7] = molecular target: EZH1 (Homo sapiens, UniProt Q92800); assay: AlphaLISA enzyme activity inhibition, EZH1; assay type: biochemical; conditions: 5nM test substance
Chain of EZH1 (Q92800 whole entry, species assumed): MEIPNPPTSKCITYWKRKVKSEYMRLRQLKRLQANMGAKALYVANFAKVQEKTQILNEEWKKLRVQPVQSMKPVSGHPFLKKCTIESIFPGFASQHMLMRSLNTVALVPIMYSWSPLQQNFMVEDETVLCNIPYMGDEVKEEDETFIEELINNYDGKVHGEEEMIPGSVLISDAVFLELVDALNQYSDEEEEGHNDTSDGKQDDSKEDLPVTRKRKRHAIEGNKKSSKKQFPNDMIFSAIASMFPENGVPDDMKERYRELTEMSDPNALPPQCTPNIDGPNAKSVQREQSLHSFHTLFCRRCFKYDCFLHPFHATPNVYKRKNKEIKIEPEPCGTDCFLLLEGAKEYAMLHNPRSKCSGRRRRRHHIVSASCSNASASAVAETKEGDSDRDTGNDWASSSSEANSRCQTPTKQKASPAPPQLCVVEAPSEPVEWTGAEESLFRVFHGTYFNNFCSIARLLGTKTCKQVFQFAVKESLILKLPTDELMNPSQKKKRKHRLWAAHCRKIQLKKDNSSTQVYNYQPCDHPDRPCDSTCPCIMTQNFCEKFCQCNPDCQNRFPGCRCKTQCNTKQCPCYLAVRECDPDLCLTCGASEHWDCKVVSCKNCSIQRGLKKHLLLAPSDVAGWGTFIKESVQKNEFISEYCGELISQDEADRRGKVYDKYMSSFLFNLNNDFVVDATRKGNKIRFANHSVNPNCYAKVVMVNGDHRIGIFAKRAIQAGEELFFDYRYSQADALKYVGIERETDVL
Chain of EZH1 (O75530 whole entry partner, species assumed): as the sequence (O75530 whole entry partner, species assumed) above
Chain of EZH1 (Q15022 whole entry partner, species assumed): as the sequence (Q15022 whole entry partner, species assumed) above
Procedure: as §2

[8] = test system: NCI-H1299 cells; assay: Cancer cell proliferation inhibition (Cell Counting Kit-8), lung cancer cell line; assay type: cell-based; conditions: Homo sapiens, NCI-H1299, 264 h, 1000 nM, cultured seven to 11 days; read-out: % inhibition rate NCI-H129 9
How it was run: as §3

Row | Structure (SMILES) | inhibition at 1 µM [1] | inhibition at 0.005 µM [2] | inhibition at 1 µM [3] | inhibition at 1 µM [4] | inhibition at 1 µM [5] | inhibition at 1 µM [6] | inhibition at 0.005 µM [7] | inhibition at 1 µM [8]
1 | CSc1cc(C)[nH]c(=O)c1CNC(=O)c1cc(-c2cnc(N3CCC4(CC3)COC4)nc2)c2c(c1C)OC(C)([C@H]1CC[C@H](N(C)C)CC1)O2 (relative stereo) [Compound 15, 7-(2-(2-oxa-7-azaspiro[3.5]nonan-7-yl)pyrimidin-5-yl)-2-(trans-4-(dimethylamino)cyclohexyl)-2,4-dimethyl-N-((6-methyl-4-(methylthio)-2-oxo-1,2-dihydropyridin-3-yl)methyl)benzo[d][1,3]dioxole-5-carboxamide] | 30 to 70% | 99.8% | ≤ 30% | ≥ 70% | 30 to 70% | 30 to 70% | 94.5% | ≤ 30%
2 | CSc1cc(C)[nH]c(=O)c1CNC(=O)c1cc(-c2ccc(N3CC(C)CC(C)C3)nc2)c2c(c1C)OC(C)([C@H]1CC[C@H](N(C)C)CC1)O2 (relative stereo) [Compound 16, 2-(trans-4-(dimethylamino)cyclohexyl)-7-(6-(3,5-dimethylpiperidin-1-yl)pyridin-3-yl)-2,4-dimethyl-N-((6-methyl-4-(methylthio)-2-oxo-1,2-dihydropyridin-3-yl)methyl)benzo[d][1,3]dioxole-5-carboxamide] | 30 to 70% | 92.4% | ≤ 30% | ≥ 70% | ≥ 70% | 30 to 70% | 69% | ≤ 30%
3 | CSc1cc(C)[nH]c(=O)c1CNC(=O)c1cc(-c2ccc(N3CCSCC3)nc2)c2c(c1C)OC(C)([C@H]1CC[C@H](N(C)C)CC1)O2 (relative stereo) [Compound 17, 2-(trans-4-(dimethylamino)cyclohexyl)-2,4-dimethyl-N-((6-methyl-4-(methylthio)-2-oxo-1,2-dihydropyridin-3-yl)methyl)-7-(6-thiomorpholinopyridin-3-yl)benzo[d][1,3]dioxole-5-carboxamide] | 30 to 70% | 99.3% | ≤ 30% | ≥ 70% | 30 to 70% | ≤ 30% | 93.8% | 30 to 70%
4 | CSc1cc(C)[nH]c(=O)c1CNC(=O)c1cc(-c2ccoc2)c2c(c1C)OC(C)([C@H]1CC[C@H](N(C)C)CC1)O2 (relative stereo) [Compound 18, 2-(trans-4-(dimethylamino)cyclohexyl)-7-(furan-3-yl)-2,4-dimethyl-N-((6-methyl-4-(methylthio)-2-oxo-1,2-dihydropyridin-3-yl)methyl)benzo[d][1,3]dioxole-5-carboxamide] | 30 to 70% | 99.8% | ≤ 30% | ≥ 70% | 30 to 70% | ≤ 30% | 87.6% | ≤ 30%
5 | CSc1cc(C)[nH]c(=O)c1CNC(=O)c1cc(-c2ccc(Cl)s2)c2c(c1C)OC(C)([C@H]1CC[C@H](N(C)C)CC1)O2 (relative stereo) [Compound 19, 7-(5-chlorothiophen-2-yl)-2-(trans-4-(dimethylamino)cyclohexyl)-2,4-dimethyl-N-((6-methyl-4-(methylthio)-2-oxo-1,2-dihydropyridin-3-yl)methyl)benzo[d][1,3]dioxole-5-carboxamide] | 30 to 70% | 98.7% | ≤ 30% | ≥ 70% | 30 to 70% | 30 to 70% | 78.7% | ≤ 30%
6 | CSc1cc(C)[nH]c(=O)c1CNC(=O)c1cc(-c2cnc(N3CCCCC3)nc2)c2c(c1C)OC(C)([C@H]1CC[C@H](N(C)CC(F)(F)F)CC1)O2 (relative stereo) [Compound 21, 2,4-dimethyl-2-(trans-4-(methyl(2,2,2-trifluoroethyl)amino)cyclohexyl)-N-((6-methyl-4-(methylthio)-2-oxo-1,2-dihydropyridin-3-yl)methyl)-7-(2-(piperidin-1-yl)pyrimidin-5-yl)benzo[d][1,3]dioxole-5-carboxamide] | ≤ 30% | 11.3% | ≤ 30% | ≥ 70% | ≤ 30% | ≤ 30% | 20.6% | ≤ 30%
7 | CSc1cc(C)[nH]c(=O)c1CNC(=O)c1cc(-c2cnc(N(C)C)nc2)c2c(c1C)OC(C)([C@H]1CC[C@H](N(C)CC(F)(F)F)CC1)O2 (relative stereo) [Compound 22, 7-(2-(dimethylamino)pyrimidin-5-yl)-2,4-dimethyl-2-(trans-4-(methyl(2,2,2-trifluoroethyl)amino)cyclohexyl)-N-((6-methyl-4-(methylthio)-2-oxo-1,2-dihydropyridin-3-yl)methyl)benzo[d][1,3]dioxole-5-carboxamide] | 30 to 70% | 81% | ≤ 30% | ≥ 70% | ≤ 30% | 30 to 70% | 53.1% | ≤ 30%
8 | COCCN(C)[C@H]1CC[C@H](C2(C)Oc3c(-c4cnc(N(C)C)nc4)cc(C(=O)NCc4c(SC)cc(C)[nH]c4=O)c(C)c3O2)CC1 (relative stereo) [Compound 26, 7-(2-(dimethylamino)pyrimidin-5-yl)-2-(trans-4-((2-methoxyethyl)(methyl)amino)cyclohexyl)-2,4-dimethyl-N-((6-methyl-4-(methylthio)-2-oxo-1,2-dihydropyridin-3-yl)methyl)benzo[d][1,3]dioxole-5-carboxamide] | 30 to 70% | 99.6% | ≤ 30% | ≥ 70% | 30 to 70% | ≤ 30% | 87.3% | ≤ 30%
9 | COCCN(C)[C@H]1CC[C@H](C2(C)Oc3c(-c4ccc(N5CCC(F)(F)CC5)nc4)cc(C(=O)NCc4c(SC)cc(C)[nH]c4=O)c(C)c3O2)CC1 (relative stereo) [Compound 27, 7-(6-(4,4-difluoropiperidin-1-yl)pyridin-3-yl)-2-(trans-4-((2-methoxyethyl)(methyl)amino)cyclohexyl)-2,4-dimethyl-N-((6-methyl-4-(methylthio)-2-oxo-1,2-dihydropyridin-3-yl)methyl)benzo[d][1,3]dioxole-5-carboxamide] | 30 to 70% | 95.8% | ≤ 30% | ≥ 70% | 30 to 70% | 30 to 70% | 80.2% | ≤ 30%
10 | COCCN(C)[C@H]1CC[C@H](C2(C)Oc3c(-c4ccc(OC)nc4)cc(C(=O)NCc4c(SC)cc(C)[nH]c4=O)c(C)c3O2)CC1 (relative stereo) [Compound 28, 2-(trans-4-((2-methoxyethyl)(methyl)amino)cyclohexyl)-7-(6-methoxypyridin-3-yl)-2,4-dimethyl-N-((6-methyl-4-(methylthio)-2-oxo-1,2-dihydropyridin-3-yl)methyl)benzo[d][1,3]dioxole-5-carboxamide] | 30 to 70% | 99.4% | ≤ 30% | 30 to 70% | 30 to 70% | ≤ 30% | 77.3% | ≤ 30%
